Measurements as given in the supplement of paper PMC8671470.

Each compound was assayed on SHI-1 (assay: cell viability (% survival relative to DMSO control, bortezomib = 0%); higher = less cytotoxic). Details: 1 nM; 72 h.
In short: (§1)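 Percent survival figures are means of duplicate wells. They were obtained by CellTiter-Glo luminescence after 10 AML and 5 CML cell lines spent 72 h at 37 °C with 5% CO2 in 384-well plates with compounds at 1, 10, 100, 1000 or 10000 nM. Vehicle was set to 100% and a 10 µM positive control to 0%.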

| Structure (SMILES) | cell viability [%] |
| --- | --- |
| OC[C@H]1OC(O)C[C@@H](O)[C@@H]1O (stereo not given in full) [2-deoxyglucose] | 112 |
| O=C(C(=O)c1ccc(Br)cc1)c1ccc(Br)cc1 [4,4'-Dibromobenzil] | 92.4 |
| NS(=O)(=O)c1ccc(NC(=O)Cc2ccccc2)cc1 [4-(2-Phenylacetamido)Benzenesulfonamide] | 106 |
| NCc1ccc(S(N)(=O)=O)cc1 [4-Homosulfanilamide] | 96.8 |
| Oc1ncc(F)c(O)n1 [5-fluorouracil] | 91.6 |
| NCc1ccc(-c2cccnc2)s1 [(5-Pyrid-3-YLTHIEN-2-YL)METHYLAMINE] | 107 |
| CC(=O)N[C@@H](CS)C(=O)O [Acetylcysteine] | 100 |
| CCCCC/C=C\C/C=C\C/C=C\C/C=C\CCCC(=O)C(F)(F)F [Arachidonyl trifluoromethyl ketone] | 99 |
| O=[As]O[As]=O (stereo not given) [Arsenic trioxide] | 105 |

Same assay, conditions: 10 nM; 72 h

| Structure (SMILES) | cell viability [%] |
| --- | --- |
| CC(=O)N1CCN(c2ccc(OC[C@@H]3CO[C@@](Cn4ccnc4)(c4ccc(Cl)cc4Cl)O3)cc2)CC1 (racemic) [Ketoconazole] | 113 |
| CCC(CC#N)OC(=O)N[C@@H](C)c1cccc(NC(=O)Nc2ccc(-c3cnco3)c(OC)c2)c1 (stereo in doubt) [AVN-944] | 107 |
| OC[C@H]1OC(O)C[C@@H](O)[C@@H]1O (stereo not given in full) [2-deoxyglucose] | 105 |
| O=C(C(=O)c1ccc(Br)cc1)c1ccc(Br)cc1 [4,4'-Dibromobenzil] | 101 |
| NS(=O)(=O)c1ccc(NC(=O)Cc2ccccc2)cc1 [4-(2-Phenylacetamido)Benzenesulfonamide] | 105 |
| NCc1ccc(S(N)(=O)=O)cc1 [4-Homosulfanilamide] | 107 |
| Oc1ncc(F)c(O)n1 [5-fluorouracil] | 110 |
| NCc1ccc(-c2cccnc2)s1 [(5-Pyrid-3-YLTHIEN-2-YL)METHYLAMINE] | 115 |
| CC(=O)N[C@@H](CS)C(=O)O [Acetylcysteine] | 96.5 |
| CCCCC/C=C\C/C=C\C/C=C\C/C=C\CCCC(=O)C(F)(F)F [Arachidonyl trifluoromethyl ketone] | 101 |
| O=[As]O[As]=O (stereo not given) [Arsenic trioxide] | 97.1 |

Same assay, conditions: 100 nM; 72 h

| Structure (SMILES) | cell viability [%] |
| --- | --- |
| CC(=O)N1CCN(c2ccc(OC[C@@H]3CO[C@@](Cn4ccnc4)(c4ccc(Cl)cc4Cl)O3)cc2)CC1 (racemic) [Ketoconazole] | 96.3 |
| CCC(CC#N)OC(=O)N[C@@H](C)c1cccc(NC(=O)Nc2ccc(-c3cnco3)c(OC)c2)c1 (stereo in doubt) [AVN-944] | 68.2 |
| OC[C@H]1OC(O)C[C@@H](O)[C@@H]1O (stereo not given in full) [2-deoxyglucose] | 105 |
| O=C(C(=O)c1ccc(Br)cc1)c1ccc(Br)cc1 [4,4'-Dibromobenzil] | 90 |
| NS(=O)(=O)c1ccc(NC(=O)Cc2ccccc2)cc1 [4-(2-Phenylacetamido)Benzenesulfonamide] | 91.2 |
| NCc1ccc(S(N)(=O)=O)cc1 [4-Homosulfanilamide] | 104 |
| Oc1ncc(F)c(O)n1 [5-fluorouracil] | 102 |
| NCc1ccc(-c2cccnc2)s1 [(5-Pyrid-3-YLTHIEN-2-YL)METHYLAMINE] | 105 |
| CC(=O)N[C@@H](CS)C(=O)O [Acetylcysteine] | 105 |
| CCCCC/C=C\C/C=C\C/C=C\C/C=C\CCCC(=O)C(F)(F)F [Arachidonyl trifluoromethyl ketone] | 103 |
| O=[As]O[As]=O (stereo not given) [Arsenic trioxide] | 112 |

Same assay, conditions: 1000 nM; 72 h

| Structure (SMILES) | cell viability [%] |
| --- | --- |
| CC(=O)N1CCN(c2ccc(OC[C@@H]3CO[C@@](Cn4ccnc4)(c4ccc(Cl)cc4Cl)O3)cc2)CC1 (racemic) [Ketoconazole] | 114 |
| CCC(CC#N)OC(=O)N[C@@H](C)c1cccc(NC(=O)Nc2ccc(-c3cnco3)c(OC)c2)c1 (stereo in doubt) [AVN-944] | 12.4 |
| OC[C@H]1OC(O)C[C@@H](O)[C@@H]1O (stereo not given in full) [2-deoxyglucose] | 93.4 |
| O=C(C(=O)c1ccc(Br)cc1)c1ccc(Br)cc1 [4,4'-Dibromobenzil] | 103 |
| NS(=O)(=O)c1ccc(NC(=O)Cc2ccccc2)cc1 [4-(2-Phenylacetamido)Benzenesulfonamide] | 102 |
| NCc1ccc(S(N)(=O)=O)cc1 [4-Homosulfanilamide] | 102 |
| Oc1ncc(F)c(O)n1 [5-fluorouracil] | 70.9 |
| NCc1ccc(-c2cccnc2)s1 [(5-Pyrid-3-YLTHIEN-2-YL)METHYLAMINE] | 97 |
| CC(=O)N[C@@H](CS)C(=O)O [Acetylcysteine] | 97.2 |
| CCCCC/C=C\C/C=C\C/C=C\C/C=C\CCCC(=O)C(F)(F)F [Arachidonyl trifluoromethyl ketone] | 96.9 |
| O=[As]O[As]=O (stereo not given) [Arsenic trioxide] | 94.7 |

Same assay, conditions: 10000 nM; 72 h

| Structure (SMILES) | cell viability [%] |
| --- | --- |
| CC(=O)N1CCN(c2ccc(OC[C@@H]3CO[C@@](Cn4ccnc4)(c4ccc(Cl)cc4Cl)O3)cc2)CC1 (racemic) [Ketoconazole] | 97.5 |
| CCC(CC#N)OC(=O)N[C@@H](C)c1cccc(NC(=O)Nc2ccc(-c3cnco3)c(OC)c2)c1 (stereo in doubt) [AVN-944] | 8.7 |
| OC[C@H]1OC(O)C[C@@H](O)[C@@H]1O (stereo not given in full) [2-deoxyglucose] | 98.3 |
| O=C(C(=O)c1ccc(Br)cc1)c1ccc(Br)cc1 [4,4'-Dibromobenzil] | 98.4 |
| NS(=O)(=O)c1ccc(NC(=O)Cc2ccccc2)cc1 [4-(2-Phenylacetamido)Benzenesulfonamide] | 102 |
| NCc1ccc(S(N)(=O)=O)cc1 [4-Homosulfanilamide] | 111 |
| Oc1ncc(F)c(O)n1 [5-fluorouracil] | 44.6 |
| NCc1ccc(-c2cccnc2)s1 [(5-Pyrid-3-YLTHIEN-2-YL)METHYLAMINE] | 100 |
| CC(=O)N[C@@H](CS)C(=O)O [Acetylcysteine] | 110 |
| CCCCC/C=C\C/C=C\C/C=C\C/C=C\CCCC(=O)C(F)(F)F [Arachidonyl trifluoromethyl ketone] | 104 |
| O=[As]O[As]=O (stereo not given) [Arsenic trioxide] | 57.6 |

Each compound was assayed on NOMO-1 in the same assay as above. Details: 1 nM; 72 h.
In short: as §1

| Structure (SMILES) | cell viability [%] |
| --- | --- |
| CC(=O)N1CCN(c2ccc(OC[C@@H]3CO[C@@](Cn4ccnc4)(c4ccc(Cl)cc4Cl)O3)cc2)CC1 (racemic) [Ketoconazole] | 102 |
| CCC(CC#N)OC(=O)N[C@@H](C)c1cccc(NC(=O)Nc2ccc(-c3cnco3)c(OC)c2)c1 (stereo in doubt) [AVN-944] | 99.9 |
| OC[C@H]1OC(O)C[C@@H](O)[C@@H]1O (stereo not given in full) [2-deoxyglucose] | 112 |
| O=C(C(=O)c1ccc(Br)cc1)c1ccc(Br)cc1 [4,4'-Dibromobenzil] | 95.6 |
| NS(=O)(=O)c1ccc(NC(=O)Cc2ccccc2)cc1 [4-(2-Phenylacetamido)Benzenesulfonamide] | 97.5 |
| NCc1ccc(S(N)(=O)=O)cc1 [4-Homosulfanilamide] | 97 |
| Oc1ncc(F)c(O)n1 [5-fluorouracil] | 92.2 |
| NCc1ccc(-c2cccnc2)s1 [(5-Pyrid-3-YLTHIEN-2-YL)METHYLAMINE] | 109 |
| CC(=O)N[C@@H](CS)C(=O)O [Acetylcysteine] | 105 |
| CCCCC/C=C\C/C=C\C/C=C\C/C=C\CCCC(=O)C(F)(F)F [Arachidonyl trifluoromethyl ketone] | 90.4 |
| O=[As]O[As]=O (stereo not given) [Arsenic trioxide] | 98 |

Same assay, conditions: 10 nM; 72 h

| Structure (SMILES) | cell viability [%] |
| --- | --- |
| CC(=O)N1CCN(c2ccc(OC[C@@H]3CO[C@@](Cn4ccnc4)(c4ccc(Cl)cc4Cl)O3)cc2)CC1 (racemic) [Ketoconazole] | 95.5 |
